Consider 64 compounds from a melting point compilation (Tetko et al.; mined from patent text by program, amines drawn as free bases though some values may be those of a salt).

Turning to `COc1c(Cl)ccc(-c2nc(C(=O)OC(C)C)c(I)c(N)c2F)c1F`, the melting point (in general, the temperature, or range, at which the solid turns liquid) fell in the range of 134 to 135 °C.
To `CC1(C)O[C@]23C[C@H]1CC[C@]2(C)CCCC3=O` belongs 55 to 56 °C; to `CC(C)C(NC(=O)OCc1ccccc1)(C(=O)OCc1ccccc1)C1CO1` (centres undefined), 74 to 76 °C; to `COc1cc(C)ccc1S(=O)(=O)NC(=O)C(c1ccc2c(c1)OCO2)c1cn(C)c2cc(C(=O)O)ccc12` (centres undefined), 199 °C.
In the case of `O=Cc1cc(-c2ccc(Cl)cc2Cl)ccc1OC(F)(F)F` it was 62 to 63 °C; in that of `CCCCCCC(C)(C)c1cc(OC)c(C2C(=O)[C@]3(C)CC[C@H]2C3(C)C)c(OC)c1` (some centres undefined), 64 to 65 °C.
To `COCC(=O)Nc1ccc2ncnc(Nc3cccc(Cl)c3)c2c1` belongs 177 to 180 °C.
In turn, `CC1(C)CC(Cl)C(=Cc2ccc(F)cc2)C1=O` (centres undefined) registered a melting point of 69 °C.
As to `CC(C)(CC(=O)Nc1ccc2oc(-c3ccc4ccc(Cl)cc4n3)cc2c1)C(=O)O`, the melting point is 228 to 230 °C.
To `CCN(CC)CC1CCn2c(nc3ccccc32)S1` (centres undefined) belongs 93 to 94 °C.
To `CC(C)(C)c1ccc2nc(N3CCN(c4ncccc4C(F)(F)F)CC3)[nH]c2c1` belongs 247 to 249 °C; to `CCCCOc1ccc(CCCO)c(Oc2ncc(C(F)(F)F)cc2Cl)c1`, 72.6 to 72.7 °C; to `CCOC(=O)c1c(CN(CC)CC)nc2sc3c(c2c1-c1ccc(OC)c(OC)c1)CCNC3`, 72 to 75 °C.
In the case of `CC(C)(O)[C@H](NC(=O)C(Cl)(Cl)Cl)c1ccccc1` it was 97 °C; in that of `COc1cc(NP(=O)(OC)OC)ccc1NC(=O)OCc1ccccc1`, 115 °C; in that of `CC1CCN(Cc2ccc(COc3cccc4c3CN(C3CCC(=O)NC3=O)C4=O)cc2)CC1` (centres undefined), 189 to 191 °C.
As to `C=CC(=O)OCc1c(Br)c(Br)c(Br)c(COC(=O)C=C)c1Br`, the melting point fell in the range of 105 to 108 °C.
Take `Nc1cccc2nc(=O)cccc12`: the melting point lay in the range of 175 to 178 °C.
In the case of `CC1(C)NC(=O)N(c2cc(Cl)c(F)c(Cl)c2)C1=O` it was 175 to 176 °C; in that of `Cc1cc2c(cc1CO)CCC(CCN1CCCC1)=C2`, 76 to 77 °C; in that of `CC1(c2ccccc2)SC(=S)N(Nc2ccccc2)C1=NOC(=O)Nc1ccc(Cl)c(Cl)c1` (centres undefined), 95 to 96 °C.
Compound `CC1(O)CC(=O)OC(CCc2ccc(O)cc2)C1` (centres undefined) returned a melting point of 135 to 137 °C.
To `C#CCN1C[C@H](OC(C)=O)CC1=O` belongs 46.5 to 47.5 °C; to `Nc1cccc(N)c1Cl`, 82 to 83.5 °C; to `CCOC(=O)CN1C[C@@H](C(N)=O)N(CC(=O)OCC)C[C@@H]1C(N)=O`, more than 260 °C.
To `CC(C)c1cccc(C(C)C)c1N1C(=O)c2ccc3c4cccc5c(C#CCCCCO)ccc(c6ccc(c2c36)C1=O)c54` belongs more than 300 °C; to `CCCn1c(=O)c2[nH]c(/C=C/c3ccco3)nc2n(CCC)c1=O`, 258 to 259 °C; to `COc1ccc2ccc3c(c2c1)CC(NC(C)=O)CO3` (centres undefined), 186 °C.
In turn, `C=C(C)c1c2c(c(C)c(C)c1N1CCN(c3ccc(OC)cc3)CC1)OC(C)(C)C2` gave a melting point of 174 to 175 °C.
To `CCCc1c(C(=O)OCC)[nH]c(CC)c1C` belongs 73 to 74 °C; to `COc1ccc(-c2nc(Cl)c(Oc3ccccc3OC)c(Cl)n2)cc1`, 113 to 114 °C.
In the case of `COc1nc(OC)nc(C2(c3nc(OC)nc(OC)n3)OC(=O)c3c(Cl)cccc32)n1` it was 126 to 127 °C; in that of `Oc1cc2c(cc1-c1nc3cc(-c4ccccc4)ccc3o1)oc1ccccc12`, 293 to 295 °C.
In the case of `COC[C@@H](NS(=O)(=O)c1ccc2c(Cl)cnc(Cl)c2c1)C(=O)OC(C)(C)C` it was 135 to 137 °C; in that of `O=C(Nc1ccc2[nH]c(C(F)(F)F)nc2c1)NC12CC3CC(CC(C3)C1)C2`, 189 to 192 °C; in that of `CC(CCC(F)(F)C(C)(C)O)C1CCC2C3CC=C4CC(O)CC(O)C4(C)C3CCC12C` (centres undefined), 177 to 179 °C.
In the case of `COc1ccc2c(c1)C(Cc1ccnc(F)c1)(Cc1ccnc(F)c1)c1ccccc1-2`, the melting point fell in the range of 143 to 146 °C.
To `C=CC(=O)Nc1n[nH]c2cc(Cl)ccc12` belongs 205 °C.
On to `Cn1c(C(F)(F)F)c([N+](=O)[O-])c2ccc(Cl)cc21`, for which the melting point is 157 to 160 °C.
`Nc1cc([N+](=O)[O-])c2c(c1N)CCCC2` came in with a melting point of 181 to 182 °C.
`CSc1nnc(C2C(=O)N(C(N)=O)c3ccc(Cl)cc32)o1` (centres undefined): the melting point lay within 297 to 299 °C.
In the case of `COc1ccc(S(=O)(=O)[C@H](CCCCc2ccccc2)[C@@H](CCS(=O)(=O)c2ccccc2)C(=O)NO)cc1OC` it was 78 to 81 °C; in that of `COc1c(Cc2ccccc2)cc(C(N)=O)c2ccccc12`, 199 to 201 °C; in that of `C=C(C(=O)Nc1ccc(CCc2nnco2)cc1)c1cnn(C)c1-c1ccc(F)cc1`, 177 to 178 °C.
In the case of `CCC1CC2C3CCc4cc(OC)ccc4C3CCC2(CC)C1=O` (centres undefined) it was 101 to 102 °C.
Turning to `CC(=O)Nc1ncc(S(=O)(=O)NCC(O)(Cn2cncn2)c2ccc(Cl)cc2Cl)s1` (centres undefined), the melting point lay in the range of 96 to 112 °C.
In the case of `CCC(C(=O)N(C)C)C(C#N)(c1ccccc1)c1ccccc1` (centres undefined), the melting point was 170 to 172 °C.
To `COc1ccc(-c2cc3c(N4CCc5ccccc54)ncnc3[nH]2)cc1` belongs more than 300 °C.
To `O=C1CCC(c2ccc(OC(F)(F)F)cc2)N1` (centres undefined) belongs 105 to 106 °C; to `CC1(c2ccccc2)OC(C=Cc2ccc(C#N)cc2)=CC1=O` (centres undefined), 187 to 188 °C.
To `O=C(CCCCCc1ccccc1)NNC(=O)c1ccc(O)cc1` belongs 155 to 160 °C.
`O=c1c2ccccc2cc(Br)c2ccncc12` had a melting point of 167 to 169 °C.
To `CC1(C)CCC(C)(C)c2cc(S(=O)c3ccc(C(=O)O)cc3)ccc21` (centres undefined) belongs 214 to 216 °C.
In the case of `Cc1cc(-n2ccnc2)ccc1[N+](=O)[O-]` it was 138 to 140 °C; in that of `CCN1CC=CC2=C1N1CN(OC)C=C1N=N2`, 167 to 168 °C.
In the case of `Cn1c(CC(=O)O)cc2c1C(=O)c1sccc1CC2` it was 157 to 158 °C; in that of `Clc1cc(-c2cnc3c(c2)N(Cc2c(Cl)cccc2Cl)CCN3)ccn1`, 194 °C.
In turn, `O=C(Nc1cccc2c(=O)nc[nH]c12)c1c(Cl)cccc1Cl` displayed a melting point of more than 250 °C.
To `Cc1ccc(C)n1-c1cc(F)c(C2=CCSCC2)c(F)c1` belongs 118 to 119 °C; to `CC(C)C(=O)Oc1c(-c2ccc(-c3ccccc3)cc2)nc2ccc(F)cc2c1C(=O)O`, 201 to 204 °C; to `CC(=O)Nc1cc(-c2sc(-c3ccc(S(C)(=O)=O)cc3)nc2-c2cccc(Cl)c2)ccn1`, 216 to 217 °C.
Turning to `O=C(Nc1ccccc1)O[C@H]1CSC(c2ccccc2)=N[C@@H]1c1ccccc1` (racemic), the melting point came out at 159 °C.
As for `Cc1cccc(-c2[nH]nnc2-c2ccc3c(c2)NC(=O)CO3)n1`, the melting point is 224 °C.
In the case of `CCOC(=O)CNc1ccc(C2=NNC(=O)NC2C)cc1` (centres undefined) it was 180 to 182 °C.
